Results on 17 molecules are retold here after PubChem BioAssay (NCI).

The structures appear in SMILES notation.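 Assay format: 96-well plates, 48-hour exposure. TGI is the concentration that stops growth completely.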 *1 amine or outer side, *2 acyl side, *3 side chain or, on linkers, in order; H or OH if unused. Where a SMILES comes first, the peptide text is derived from it. Bridges are numbered along the chain shown (N, C = ends). Roman numbers before positions name the chains, in order. [ ]: non-standard residue; d: D form. Actinocin(9to1) = Cc1c2oc3c(C)ccc(C(=O)[*:1])c3nc-2c(C(=O)[*:2])c(N)c1=O; NMeV = CN[CH](C(=O)O)C(C)C; Sar = CNCC(=O)O Bounds are passed on as bounds.

Some test systems named below: SR leukemia; SNB-19 CNS; SN12C renal; CCRF-CEM leukemia; MDA-MB-231 breast; COLO 205 colon; HT29 colon; RXF 393 renal; A498 renal; LOX IMVI melanoma.
Holding throughout (assay): inhibition of tumour cell growth, NCI panel, 48 h

As to `Fc1ccc(N=NN2CCCC2)cc1`, the TGI in the experiment on SR leukemia, in the experiment with SNB-19 CNS, with SN12C renal, in the experiment on CCRF-CEM leukemia, in the experiment on MDA-MB-231 breast and with COLO 205 colon was greater than 100 µM in each case. Further, the TGI in the experiment on HT29 colon, in the experiment with RXF 393 renal, in the experiment with A498 renal and in the experiment with LOX IMVI melanoma was greater than 100 µM in each case.
In the case of `O=c1c2cc(I)ccc2nc(Sc2ncccc2[N+](=O)[O-])n1Cc1ccccc1`, the TGI with SR leukemia, with SNB-19 CNS, with SN12C renal, with CCRF-CEM leukemia, with MDA-MB-231 breast and in the experiment with COLO 205 colon was greater than 100 µM in each case. In addition, the TGI in the experiment on HT29 colon, with RXF 393 renal, in the experiment on A498 renal and with LOX IMVI melanoma was greater than 100 µM in each case.
Take `Cc1sc(/N=C/c2c[nH]c3ccccc23)c(C#N)c1C`: the TGI with SR leukemia is greater than 100 µM; with SNB-19 CNS, greater than 100 µM; in the experiment on SN12C renal, greater than 100 µM; in the experiment with CCRF-CEM leukemia it was 58.3 µM; with MDA-MB-231 breast, greater than 100 µM; in the experiment with COLO 205 colon it was greater than 100 µM. The TGI with HT29 colon was greater than 100 µM; with RXF 393 renal it was 74 µM; in the experiment with A498 renal, 96.7 µM; in the experiment on LOX IMVI melanoma it was greater than 100 µM.
On to `CNC(=O)c1cc(NC(=O)N(CCC#N)CCN(C(=O)N[C@@H](Cc2ccccc2)C(=O)N[C@@H](CC(C)C)C(=O)NC)c2ccccc2)ccc1OC`, for which the TGI with SR leukemia is 68.9 µM; with SNB-19 CNS it was greater than 100 µM; in the experiment with SN12C renal, greater than 85.1 µM; in the experiment with CCRF-CEM leukemia, greater than 100 µM; with MDA-MB-231 breast, greater than 60.3 µM; in the experiment on COLO 205 colon it was greater than 100 µM. Also, the TGI was greater than 100 µM in the experiment on HT29 colon, 99.4 µM with RXF 393 renal, greater than 91.5 µM with A498 renal and greater than 100 µM with LOX IMVI melanoma.
For the molecule `CC[C@H](C)[C@H]1NC(=O)[C@@H](NC(=O)[C@@H](CC(C)C)N(C)CC2CCCN2C(=O)C(C)=O)[C@@H](C)OC(=O)[C@H](Cc2ccc(OC)cc2)N(C)C(=O)C2CCCN2C(=O)[C@H](CC(C)C)NC(=O)[C@@H](C)C(=O)[C@H](C(C)C)OC(=O)C[C@@H]1O` (stereo not given in full), the TGI with SR leukemia stood at 0.00471 µM; with SNB-19 CNS, 0.0115 µM; in the experiment on SN12C renal, 0.0301 µM; in the experiment with CCRF-CEM leukemia, 0.00404 µM; in the experiment on MDA-MB-231 breast, 0.0251 µM; with COLO 205 colon it was 0.00879 µM. In addition, the TGI amounted to 0.0065 µM in the experiment with HT29 colon, 0.00299 µM in the experiment on RXF 393 renal, 0.0146 µM with A498 renal and 0.00861 µM with LOX IMVI melanoma.
As for `[N-]=[N+]=CC(=O)OCC1SCCCS1`, the TGI in the experiment on SR leukemia, with SNB-19 CNS, with SN12C renal, in the experiment with CCRF-CEM leukemia, with MDA-MB-231 breast and with COLO 205 colon was greater than 100 µM each time. In addition, the TGI with HT29 colon, with RXF 393 renal, with A498 renal and in the experiment with LOX IMVI melanoma was greater than 100 µM in each case.
As to `O=C(CCCCCCCCC(=O)N1C(=O)CC(=O)N(c2cccc(Cl)c2)C1=S)N1C(=O)CC(=O)N(c2cccc(Cl)c2)C1=S`, the TGI in the experiment on SR leukemia was 67.8 µM; with SNB-19 CNS, greater than 100 µM; in the experiment with SN12C renal, greater than 100 µM; in the experiment with CCRF-CEM leukemia it was greater than 100 µM; with MDA-MB-231 breast it was 84.3 µM; in the experiment with COLO 205 colon, greater than 100 µM. For the same molecule, the TGI with HT29 colon, with RXF 393 renal, in the experiment on A498 renal and with LOX IMVI melanoma was greater than 100 µM throughout.
`Cc1cc(-c2nc3ccccc3s2)ccc1NC(=O)[C@H](C)N`: the TGI amounted to 13.4 µM with SR leukemia; 28.7 µM in the experiment on SNB-19 CNS; 27.9 µM with SN12C renal; 24.1 µM in the experiment with CCRF-CEM leukemia; 32.6 µM with MDA-MB-231 breast; 26.7 µM in the experiment on COLO 205 colon. Moreover, the TGI in the experiment with HT29 colon was 28.7 µM; in the experiment with RXF 393 renal it was 25.4 µM; with A498 renal, 28.6 µM; with LOX IMVI melanoma, greater than 100 µM.
With `O=c1c(C=Nc2ccc([N+](=O)[O-])cc2)c(O)n(-c2ccccc2)c(=O)n1-c1ccccc1`, the TGI in the experiment on SR leukemia, with SNB-19 CNS, with SN12C renal, with CCRF-CEM leukemia, in the experiment with MDA-MB-231 breast and with COLO 205 colon was greater than 100 µM throughout. The TGI in the experiment on HT29 colon, with RXF 393 renal, in the experiment with A498 renal and in the experiment on LOX IMVI melanoma was greater than 100 µM each time.
Regarding `CC(C)(C)C1(COC(=O)c2ccc(N)cc2)COC1`, the TGI in the experiment with SR leukemia, in the experiment on SNB-19 CNS, in the experiment with SN12C renal, with CCRF-CEM leukemia, in the experiment on MDA-MB-231 breast and in the experiment with COLO 205 colon was greater than 100 µM each time. Besides, the TGI in the experiment on HT29 colon, with RXF 393 renal, in the experiment on A498 renal and in the experiment on LOX IMVI melanoma was greater than 100 µM throughout.
Consider `Oc1ccc(SCc2cc(O)c(O)c(O)c2)cc1`, for which the TGI in the experiment with SR leukemia was greater than 100 µM; in the experiment with SNB-19 CNS, greater than 100 µM; in the experiment on SN12C renal, 74.9 µM; in the experiment on CCRF-CEM leukemia, 74.4 µM; with MDA-MB-231 breast, greater than 100 µM; with COLO 205 colon, 36.9 µM. Further, the TGI in the experiment with HT29 colon is 48.1 µM; in the experiment with RXF 393 renal it was greater than 100 µM; in the experiment on A498 renal, greater than 100 µM; in the experiment with LOX IMVI melanoma, greater than 100 µM.
Turning to `C1CCC(OC2CSC2)OC1` (stereo not given), the TGI in the experiment with SR leukemia, with SNB-19 CNS, with SN12C renal, in the experiment on CCRF-CEM leukemia, in the experiment on MDA-MB-231 breast and in the experiment with COLO 205 colon was greater than 100 µM each time. Moreover, the TGI with HT29 colon, with RXF 393 renal, in the experiment on A498 renal and in the experiment with LOX IMVI melanoma was greater than 100 µM in each case.
For `O=C1COc2ccc([N+](=O)[O-])cc2C(=O)C1`, the TGI with SR leukemia, in the experiment on SNB-19 CNS, in the experiment on SN12C renal, with CCRF-CEM leukemia, with MDA-MB-231 breast and in the experiment with COLO 205 colon was greater than 10 µM each time. For the same molecule, the TGI in the experiment on HT29 colon, in the experiment with RXF 393 renal, with A498 renal and in the experiment with LOX IMVI melanoma was greater than 10 µM each time.
Take `COC(OC)C1OC(CO)C(n2ccc(N)nc2=O)C1O` (stereo not given): the TGI with SR leukemia, in the experiment on SNB-19 CNS, in the experiment on SN12C renal, in the experiment on CCRF-CEM leukemia, in the experiment with MDA-MB-231 breast and in the experiment with COLO 205 colon was greater than 100 µM throughout. Moreover, the TGI in the experiment with HT29 colon, in the experiment with RXF 393 renal, in the experiment on A498 renal and in the experiment on LOX IMVI melanoma was greater than 100 µM in each case.
Regarding `CSc1c(C#N)c(=O)[nH]c2n[nH]c(C)c12`, the TGI in the experiment with SR leukemia, in the experiment on SNB-19 CNS, with SN12C renal, in the experiment with CCRF-CEM leukemia, in the experiment on MDA-MB-231 breast and in the experiment on COLO 205 colon was greater than 100 µM throughout. Further, the TGI with HT29 colon, in the experiment on RXF 393 renal, in the experiment on A498 renal and with LOX IMVI melanoma was greater than 100 µM throughout.
For `CN(NC(=O)CCCl)C1=NCCCCN1`, the TGI in the experiment on SR leukemia, with SNB-19 CNS, with SN12C renal, in the experiment on CCRF-CEM leukemia, in the experiment on MDA-MB-231 breast and in the experiment on COLO 205 colon was greater than 100 µM in each case. Also, the TGI with HT29 colon, in the experiment with RXF 393 renal, with A498 renal and with LOX IMVI melanoma was greater than 100 µM throughout.
Take `Cc1c2oc3c(C)ccc(C(=O)NC4C(=O)NC(C(C)O)C(=O)N5CCCC5C(=O)N(C)CC(=O)N(C)C(C(C)C)C(=O)OC4C)c3nc-2c(C(=O)NC2C(=O)NC(C(C)O)C(=O)N3CCCC3C(=O)N(C)CC(=O)N(C)C(C(C)C)C(=O)OC2C)c(N)c1=O` (stereo not given) (I: TTP[Sar][NMeV] / II: TTP[Sar][NMeV]; ester I:1-I:C, II:1-II:C; linker I:N-II:N via Actinocin(9to1); configuration not given here): the TGI with SR leukemia was 0.047 µM; in the experiment on SNB-19 CNS, greater than 100 µM; in the experiment on SN12C renal, greater than 100 µM; with CCRF-CEM leukemia, 5 µM; in the experiment with MDA-MB-231 breast, greater than 100 µM; in the experiment on COLO 205 colon it was 0.762 µM. Besides, the TGI in the experiment with HT29 colon is 4.19 µM; in the experiment on RXF 393 renal, 1.29 µM; with A498 renal, 2.71 µM; in the experiment with LOX IMVI melanoma, 0.984 µM.
